Assay results: patent US8716284B2, “Adamantyl diamide derivatives and uses of same” (H. Lundbeck A/S, priority 2008, dated 2014)

target: T1, rat metabotropic glutamate receptor 5 (mGluR5) (Rattus norvegicus, UniProt P31424); assay: Calcium mobilization assay (FLIPR) for negative or positive allosteric activity, HEK 293 cells; type: cell-based; details: HEK293, negative allosteric modulation, inhibition of EC80 glutamate response; read-out: FLIPR maximum inhibition
T1 construct: expressed in transfected cells; host or cells: HEK 293
T1 sequence (P31424 21-1171 isoform P31424-2 limits assumed): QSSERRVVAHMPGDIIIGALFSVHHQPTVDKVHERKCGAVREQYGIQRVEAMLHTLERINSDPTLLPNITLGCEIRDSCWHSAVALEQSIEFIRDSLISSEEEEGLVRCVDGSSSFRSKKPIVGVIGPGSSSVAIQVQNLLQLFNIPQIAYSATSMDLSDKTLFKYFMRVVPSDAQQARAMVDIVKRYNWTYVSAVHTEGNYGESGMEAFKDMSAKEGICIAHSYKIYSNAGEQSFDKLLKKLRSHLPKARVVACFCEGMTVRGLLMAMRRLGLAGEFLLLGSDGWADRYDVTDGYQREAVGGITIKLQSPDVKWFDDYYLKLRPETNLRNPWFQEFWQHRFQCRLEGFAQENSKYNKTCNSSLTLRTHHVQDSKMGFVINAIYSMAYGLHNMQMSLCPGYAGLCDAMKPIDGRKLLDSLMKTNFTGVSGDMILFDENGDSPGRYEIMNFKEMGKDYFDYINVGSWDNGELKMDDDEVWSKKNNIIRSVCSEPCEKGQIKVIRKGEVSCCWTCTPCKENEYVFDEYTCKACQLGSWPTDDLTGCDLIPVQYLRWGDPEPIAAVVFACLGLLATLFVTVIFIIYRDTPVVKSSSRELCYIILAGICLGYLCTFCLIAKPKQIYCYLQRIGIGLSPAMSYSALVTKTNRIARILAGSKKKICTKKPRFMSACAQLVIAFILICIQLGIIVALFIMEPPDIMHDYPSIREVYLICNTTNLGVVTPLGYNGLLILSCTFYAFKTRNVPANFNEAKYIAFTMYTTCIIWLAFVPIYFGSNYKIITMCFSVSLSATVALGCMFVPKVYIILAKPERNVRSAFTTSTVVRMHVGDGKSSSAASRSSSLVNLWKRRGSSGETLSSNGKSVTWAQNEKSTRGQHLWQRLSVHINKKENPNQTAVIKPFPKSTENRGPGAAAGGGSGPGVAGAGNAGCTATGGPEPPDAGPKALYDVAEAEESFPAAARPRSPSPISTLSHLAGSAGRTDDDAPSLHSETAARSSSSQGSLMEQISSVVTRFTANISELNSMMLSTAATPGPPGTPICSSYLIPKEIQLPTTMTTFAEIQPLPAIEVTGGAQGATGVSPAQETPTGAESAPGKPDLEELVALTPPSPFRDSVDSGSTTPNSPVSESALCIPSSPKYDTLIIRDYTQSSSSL
Method: The cDNA for rat metabotropic glutamate receptor 5 (mGluR5) was a generous gift from S. Nakanishi (Kyoto University, Kyoto, Japan). The mGluR5 was stably expressed in a HEK 293 cell line and grown in Dulbecco's Modified Eagle Medium (DMEM) (Invitrogen, Carlsbad, Calif.) with supplements (10% bovine calf serum, 4 mM glutamine, 100 units/mL penicillin, 100 μg/mL streptomycin and 0.75 mM G1418) at 37° C., 5% CO2. Twenty-four hours prior to assay, cells were seeded into 384-well black wall microtiter plates coated with poly-D-lysine. Just prior to assay, media was aspirated and cells dye-loaded (25 μL/well) with 3 μM Fluo-4/0.01% pluronic acid in assay buffer (Hank's Balanced Saline Solution (HBSS)): 150 mM NaCl, 5 mM KCl, 1 mM CaCl2, 1 mM MgCl2, plus 20 mM N-2-Hydroxyethylpiperazine-N′-2-ethanesulfonic acid (HEPES), pH 7.4, 0.1% bovine serum albumin (BSA) and 2.5 mM probenicid) for 1 hour in 5% CO2 at 37° C. After excess dye was discarded, cells were washed in assay buffer and layered with a final volume equal to 30 μL/well. Basal fluorescence is monitored in a fluorometric imaging plate reader (FLIPR) (Molecular Devices, Sunnyvale, Calif.) with an excitation wavelength of 488 nm and an emission range of 500 to 560 nm. Laser excitation energy was adjusted so that basal fluorescence readings were approximately 10,000 relative fluorescent units. Cells were stimulated with an EC20 or an EC80 concentration of glutamate in the presence of a compound to be tested, both diluted in assay buffer, and relative fluorescent units were measured at defined intervals (exposure=0.6 sec) over a 3 min period at room temperature. Basal readings derived from negative controls were subtracted from all samples. Maximum change in fluorescence was calculated for each well. Concentration-response curves derived from the maximum change in fluorescence were analyzed by nonlinear regression (Hill equation). A negative modulator can be identified from these concentration-response curves if a compound produces a concentration dependent inhibition of the EC80 glutamate response. […] Examples 11-163 also were tested in the above assay.
A positive modulator can be identified from these concentration-response curves if a compound produces a concentration dependent increase in the EC20 glutamate response.

SMILES | Emax [%]
O=C(NC12CC3CC(C1)CC(NC(=O)C1CCCCC1)(C3)C2)c1ccccn1 [Example 84, Pyridine-2-carboxylic acid [3-(cyclohexanecarbonyl-amino)-adamantan-1-yl]-amide] | 63 to 99
Cc1ccn2cc(C(=O)NC34CC5CC(CC(NC(=O)c6cccc(F)c6)(C5)C3)C4)nc2c1 [Example 104, 7-Methyl-imidazo[1,2-a]pyridine-2-carboxylic acid [3-(3-fluoro-benzoylamino)-adamantan-1-yl]-amide] | 63 to 99
O=C(NC12CC3CC(C1)CC(NC(=O)c1ccncc1)(C3)C2)c1ccncc1 [Example 4, N,N′-(1,3-adamantylene)bis(4-pyridinecarboxamide)] | 90 to 99
O=C(NC12CC3CC(C1)CC(NC(=O)C1CCC1)(C3)C2)c1ccccn1 [Example 82, Pyridine-2-carboxylic acid [3-(cyclobutanecarbonyl-amino)-adamantan-1-yl]-amide] | 63 to 99
Cc1cncc(C(=O)NC23CC4CC(CC(NC(=O)c5ccnc(Br)c5)(C4)C2)C3)n1 [Example 178, 6-Methyl-pyrazine-2-carboxylic acid {3-[(2-bromo-pyridine-4-carbonyl)-amino]-adamantan-1-yl}-amide] | 63 to 99
Cn1ccc(C(=O)NC23CC4CC(C2)CC(NC(=O)c2ccn(C)n2)(C4)C3)n1 [Example 17, N,N′-(1,3-Adamantylene)bis(1-methyl-1H-pyrazole-3-carboxamide)] | 63 to 99
Cc1cncc(C(=O)NC23CC4CC(CC(NC(=O)c5ccc(F)cc5)(C4)C2)C3)n1 [Example 177, 6-Methyl-pyrazine-2-carboxylic acid [3-(4-fluoro-benzoylamino)-adamantan-1-yl]-amide] | 63 to 99
Cc1cccc(C(=O)NC23CC4CC(C2)CC(NC(=O)C2CC(F)(F)C2)(C4)C3)n1 [Example 47, 6-Methyl-pyridine-2-carboxylic acid {3-[(3,3-difluoro-cyclobutanecarbonyl)-amino]-adamantan-1-yl}-amide] | 63 to 99
Cc1cccc(C(=O)NC23CC4CC(CC(NC(=O)c5ccc6occc6c5)(C4)C2)C3)n1 [Example 33, 6-Methyl-pyridine-2-carboxylic acid {3-[(benzofuran-5-carbonyl)-amino]-adamantan-1-yl}-amide] | 63 to 99
COc1ccnc(C(=O)NC23CC4CC(C2)CC(NC(=O)c2cncc(C)n2)(C4)C3)c1 [Example 153, 6-Methyl-pyrazine-2-carboxylic acid {3-[(4-methoxy-pyridine-2-carbonyl)-amino]-adamantan-1-yl}-amide] | 70 to 99
Cc1cccc(C(=O)NC23CC4CC(CC(NC(=O)c5ccn6ccnc6c5)(C4)C2)C3)n1 [Example 51, Imidazo[1,2-a]pyridine-7-carboxylic acid {3-[(6-methyl-pyridine-2-carbonyl)-amino]-adamantan-1-yl}-amide] | 63 to 99
Cc1cncc(C(=O)NC23CC4CC(C2)CC(NC(=O)c2ncccc2C)(C4)C3)n1 [Example 168, 6-Methyl-pyrazine-2-carboxylic acid {3-[(3-methyl-pyridine-2-carbonyl)-amino]-adamantan-1-yl}-amide] | 63 to 99
Cc1nccc(C(=O)NC23CC4CC(CC(NC(=O)c5ccc(F)cn5)(C4)C2)C3)n1 [Example 191, 2-Methyl-pyrimidine-4-carboxylic acid {3-[(5-fluoro-pyridine-2-carbonyl)-amino]-adamantan-1-yl}-amide] | 63 to 99
Cc1cncc(C(=O)NC23CC4CC(C2)CC(NC(=O)c2cc(C(F)(F)F)ccc2F)(C4)C3)n1 [Example 169, 6-Methyl-pyrazine-2-carboxylic acid [3-(2-fluoro-5-trifluoromethyl-benzoylamino)-adamantan-1-yl]-amide] | 63 to 99
O=C(NC12CC3CC(C1)CC(NC(=O)c1cccc(N4CCC[C@H]4CO)n1)(C3)C2)c1ccccn1 [Example 228, 6-((S)-2-Hydroxymethyl-pyrrolidin-1-yl)-pyridine-2-carboxylic acid {3-[(pyridine-2-carbonyl)-amino]-adamantan-1-yl}-amide] | 63 to 99
O=C(NC12CC3CC(C1)CC(NC(=O)c1ccc4ccccc4n1)(C3)C2)c1ccc2ccccc2n1 [Example 12, N,N′-(1,3-adamantylene)bis(quinoline-2-carboxamide)] | 63 to 99

The remaining lines, values ahead:

Emax [%] | SMILES
70 to 99 | Cc1cccc(C(=O)NC23CC4CC(C2)CC(NC(=O)c2cccc(C(C)(C)O)n2)(C4)C3)n1 [Example 144, 6-Methyl-pyridine-2-carboxylic acid (3-{[6-(1-hydroxy-1-methyl-ethyl)-pyridine-2-carbonyl]-amino}-adamantan-1-yl)-amide]
70 to 99 | Cc1cccc(C(=O)NC23CC4CC(CC(NC(=O)c5cc(F)ccn5)(C4)C2)C3)n1 [Example 125, 6-Methyl-pyridine-2-carboxylic acid {3-[(4-fluoropyridine-2-carbonyl)-amino]-adamantan-1-yl}-amide]
63 to 99 | CC(=O)NCCNc1cccc(C(=O)NC23CC4CC(CC(NC(=O)c5cccc(F)c5)(C4)C2)C3)n1 [Example 244, 6-(2-Acetylamino-ethylamino)-pyridine-2-carboxylic acid [3-(3-fluoro-benzoylamino)-adamantan-1-yl]-amide]
63 to 99 | Cc1cccc(C(=O)NC23CC4CC(C2)CC(NC(=O)c2nc5ccccc5s2)(C4)C3)n1 [Example 36, Benzothiazole-2-carboxylic acid {3-[(6-methyl-pyridine-2-carbonyl)-amino]-adamantan-1-yl}-amide]
63 to 99 | CN(CCO)c1cccc(C(=O)NC23CC4CC(CC(NC(=O)c5ccccn5)(C4)C2)C3)n1 [Example 202, 6-[(2-Hydroxy-ethyl)-methyl-amino]-pyridine-2-carboxylic acid {3-[(pyridine-2-carbonyl)-amino]-adamantan-1-yl}-amide]
63 to 99 | Cc1cccc(C(=O)NC23CC4CC(C2)CC(NC(=O)c2cccc(NCCCO)n2)(C4)C3)n1 [Example 210, 6-(3-Hydroxy-propylamino)-pyridine-2-carboxylic acid {3-[(6-methyl-pyridine-2-carbonyl)-amino]-adamantan-1-yl}-amide]
63 to 99 | Cc1cccc(C(=O)NC23CC4CC(C2)CC(NC(=O)c2c5ccccc5nn2C)(C4)C3)n1 [Example 49, 2-Methyl-2H-indazole-3-carboxylic acid {3-[(6-methyl-pyridine-2-carbonyl)-amino]-adamantan-1-yl}-amide]
63 to 99 | COCCCNc1cccc(C(=O)NC23CC4CC(CC(NC(=O)c5cccc(C)n5)(C4)C2)C3)n1 [Example 231, 6-(3-Methoxy-propylamino)-pyridine-2-carboxylic acid {3-[(6-methyl-pyridine-2-carbonyl)-amino]-adamantan-1-yl}-amide]
70 to 99 | Cc1cccc(C(=O)NC23CC4CC(C2)CC(NC(=O)c2cccc(C(C)O)n2)(C4)C3)n1 (stereo not shown) [Example 143, 6-Methyl-pyridine-2-carboxylic acid {3-[(6-(1-hydroxy-ethyl)-pyridine-2-carbonyl)-amino]-adamantan-1-yl}-amide]
70 to 99 | Cc1cccc(C(=O)NC23CC4CC(C2)CC(NC(=O)c2ncccn2)(C4)C3)n1 [Example 121, Pyrimidine-2-carboxylic acid {3-[(6-methyl-pyridine-2-carbonyl)-amino]-adamantan-1-yl}-amide]
63 to 99 | Cc1cccc(C(=O)NC23CC4CC(CC(NC(=O)c5cccc(C#N)c5)(C4)C2)C3)n1 [Example 32, 6-Methyl-pyridine-2-carboxylic acid [3-(3-cyano-benzoylamino)-adamantan-1-yl]-amide]
63 to 99 | CN(C)CCNc1cccc(C(=O)NC23CC4CC(CC(NC(=O)c5ccccn5)(C4)C2)C3)n1 [Example 222, 6-(2-Dimethylamino-ethylamino)-pyridine-2-carboxylic acid {3-[(pyridine-2-carbonyl)-amino]-adamantan-1-yl}-amide]
70 to 99 | Cc1cccc(C(=O)NC23CC4CC(C2)CC(NC(=O)c2cc(C)n(C)n2)(C4)C3)n1 [Example 127, 6-Methyl-pyridine-2-carboxylic acid {3-[(1,5-dimethyl-1H-pyrazole-3-carbonyl)-amino]-adamantan-1-yl}-amide]
70 to 99 | Cc1cccc(C(=O)NC23CC4CC(C2)CC(NC(=O)c2csc(C)n2)(C4)C3)n1 [Example 136, 6-Methyl-pyridine-2-carboxylic acid {3-[(2-methyl-thiazole-4-carbonyl)-amino]-adamantan-1-yl}-amide]
63 to 99 | COCCNc1cccc(C(=O)NC23CC4CC(CC(NC(=O)c5ccccn5)(C4)C2)C3)n1 [Example 224, 6-(2-Methoxy-ethylamino)-pyridine-2-carboxylic acid {3-[(pyridine-2-carbonyl)-amino]-adamantan-1-yl}-amide]
